Results reported in patent publication US11326207B2, “Sequencing using non-natural nucleotides” (Ultima Genomics, Inc., priority 2017, dated 2022).

Legend:
Format in all cases: biochemical
Bst 2.0 DNA polymerase [1] = experiment: Homopolymer assay of dCTP analogs (Example 9); conditions: rates of fluorescence, homopolymer template
Protocol: (§1) A homopolymer assay was performed to investigate the effectiveness of E-dCTP and P-dUTP as nucleotide analogs of dCTP. 50 μl solutions containing a template nucleic acid molecule and primer and Bst 2.0 DNA polymerase are placed in a microplate reader and the fluorescence of the solution is measured in kinetic mode. A fluorescein attached to an oligonucleotide (indicated with a * in FIG. 7) was quenched in the substrate due to the proximity of complementary G bases. Addition of dCTP and/or dCTP analogs causes extension of the 3′ end of the primer, formation of double-stranded DNA, and unquenching of the fluorescein. The fluorescence increases with the addition of multiple nucleotides.

Bst 2.0 DNA polymerase [2] = experiment: Homopolymer assays of nucleotide analogs (Example 10); conditions: Natural Nucleotide C (dCTP = 1); template oligo 333, primer 221L
Protocol: as §1
Additional homopolymer assays were performed according to the procedure outlined in Example 8 using different nucleotides and nucleotide analogs.
To test for dUTP or TTP incorporation, oligo 332 was used as a template and oligo 221L was used as a primer. To test for dCTP incorporation, oligo 333 was used as a template and oligo 221L was used as a primer. To test for dGTP incorporation, oligo 334 was used as a template and oligo 221L was used as a primer. To test for dATP incorporation, hairpin oligo 221 was used as both a primer and template.

Bst DNA polymerase = target: T1, Bst DNA polymerase (Geobacillus stearothermophilus, UniProt P52026); experiment: Replacement of dCTP with P-dCTP, context metric (Example 10)
T1 sequence (P52026 1-876): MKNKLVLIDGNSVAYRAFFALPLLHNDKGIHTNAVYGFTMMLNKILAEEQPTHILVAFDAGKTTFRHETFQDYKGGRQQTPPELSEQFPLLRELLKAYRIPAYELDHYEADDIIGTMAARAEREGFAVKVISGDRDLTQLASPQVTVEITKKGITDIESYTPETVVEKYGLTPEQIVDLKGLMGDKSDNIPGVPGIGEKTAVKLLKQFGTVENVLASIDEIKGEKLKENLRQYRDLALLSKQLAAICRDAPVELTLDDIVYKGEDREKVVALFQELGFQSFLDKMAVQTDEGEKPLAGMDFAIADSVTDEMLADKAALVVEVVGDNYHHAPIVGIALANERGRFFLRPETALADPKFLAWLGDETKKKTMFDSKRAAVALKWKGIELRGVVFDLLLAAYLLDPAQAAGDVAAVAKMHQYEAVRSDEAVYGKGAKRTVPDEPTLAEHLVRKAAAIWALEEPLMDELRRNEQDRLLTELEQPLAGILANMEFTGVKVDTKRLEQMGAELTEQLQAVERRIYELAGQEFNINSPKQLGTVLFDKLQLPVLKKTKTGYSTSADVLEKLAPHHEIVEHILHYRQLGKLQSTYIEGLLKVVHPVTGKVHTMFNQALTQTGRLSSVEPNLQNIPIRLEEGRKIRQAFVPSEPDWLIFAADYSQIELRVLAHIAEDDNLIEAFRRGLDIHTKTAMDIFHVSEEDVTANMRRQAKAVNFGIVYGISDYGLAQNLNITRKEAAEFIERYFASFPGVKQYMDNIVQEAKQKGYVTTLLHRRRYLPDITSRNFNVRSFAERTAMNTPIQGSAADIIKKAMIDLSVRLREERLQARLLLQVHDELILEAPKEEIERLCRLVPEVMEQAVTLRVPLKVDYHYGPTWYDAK
Source text: A microscope slide surface was modified with polyaminosilane to allow the attachment of 1 micron beads each containing one of three different oligonucleotide templates. To each template was bound an oligonucleotide primer and Bst DNA polymerase. Solutions of mixtures of labeled and unlabeled nucleotide, of one type at a time, were exposed to the surface, followed by a wash solution. The fluorescence of labeled beads was detected and quantitated. The fluorescence label was cleaved by treatment with tris(hydroxypropyl)phosphine (THP) after each step.
Context was measured for each experiment. Context is given by the context metric, C, which is defined as the (maximum-minimum signal)/average signal.
Experiments were performed replacing dCTP with P-dCTP for three different oligonucleotide templates.

Row | rate of incorporation compared with natural dCTP (Bst 2.0 DNA polymerase [1]) | SMILES | Relative Rate in Homopolymer Assay (Bst 2.0 DNA polymerase [2]) | C (context metric) (Bst DNA polymerase; Oligonucleotide template 1) | C (context metric) (Bst DNA polymerase; Oligonucleotide template 2) | C (context metric) (Bst DNA polymerase; Oligonucleotide template 3)
1 | much faster than that of natural dCTP | C#Cc1cn([C@H]2C[C@H](O)[C@@H](COP(=O)(O)OP(=O)(O)OP(=O)(O)O)O2)c(=O)nc1N [E-dCTP, 5-ethynyl-2′-deoxycytidine 5′triphosphate] | >1 | – | – | –
2 | – | Nc1ccn([C@H]2C[C@H](O)[C@@H](COP(=O)(O)OP(=O)(O)OP(=O)(O)O)O2)c(=O)n1 [dCTP, deoxycytidine triphosphate] | 1 | 0.85 | 0.72 | 0.70
